Test [1] has as its system MDA-MB-231 human breast cancer cells. As to the kind of experiment: Single-cell FDG uptake at a fixed time-point, radioluminescence and fluorescence microscopy. The conditions noted are these: glucose-deprived 1 hour. The test is classed as cell-based.
From the text: In this illustration, the common radiotracer [^18F]fluorodeoxyglucose (FDG) was used. […] The radioluminescence microscopy set-up consisted of cells adhering to a 100 μm-thin CdWO4 scintillator plate that was immersed in a glass-bottom dish filled with cell culture medium as shown schematically in FIG. 2. The dish was imaged using an inverted microscope fitted with a high-NA objective and an electron-multiplying charge-coupled device (EM-CCD).
Brightfield images were acquired with no EM gain, a neutral-density filter on the excitation, and the emission shutter open. […] The brightfield mode was used to set the microscope into focus. […] For fluorescence microscopy, a 460 nm/535 nm filter set for 2-NBDG imaging (Chroma, D460/50x and D535/40m) and a 540 nm/600 nm filter set for RFP imaging (Chroma, HQ540/40x and HQ600/50m) were used.
One side of the scintillator plate was coated with fibronectin (10 μg/ml) to allow the cells to attach. After the plate had dried, the cells were seeded by placing a 50 μl drop containing 10^4 cells on to the fibronectin-coated plate.
After washing the cells, brightfield, radioluminescence and fluorescence micrographs were acquired.
To measure radiotracer uptake in single cells, circular regions of interest (ROI's; diameter, 24 μm) were manually placed on the cells using the brightfield micrograph. […] The same procedure was also applied to fluorescence micrographs.
Test [2] deals with breast cancer cells (MDA-MB-231). As to the kind of experiment: Single-cell FDG uptake and efflux over time (pharmacokinetic study), serial radioluminescence imaging. The format is cell-based, human. The method, then: To investigate the utility of radioluminescence microscopy for single-cell pharmacokinetic studies, FDG uptake, FDG efflux and FDG withdrawal conditions were analyzed. FDG uptake in breast cancer cells (MDA-MB-231) over time was monitored by depriving cells of glucose for 1 hour and then adding 5 μCi of FDG to the medium. Serial brightfield and radioluminescence images were acquired every 6 minutes for a period of 8 hours.
To monitor FDG efflux, breast cancer cells (MDA-MB-231) were subjected to conditions known to minimize FDG influx, i.e. thorough competition from glucose and withdrawal of FDG.
The influx of FDG into glucose-deprived cells was described using the following two-tissue compartmental kinetic model:
where Ca is the extracellular FDG concentration (assumed to be fixed); C(t) is the time-dependent intracellular FDG concentration (including free FDG and bound FDG-6-P); and K1, k2 and k3 are the rate constants representing influx, efflux, and irreversible phosphorylation of FDG, respectively. Fort>>1/(k2+k3, the intracellular and extracellular compartments are in equilibrium, and the intracellular concentration of FDG increases linearly with time due to irreversible trapping of FDG. The parameters of this linear rise (i.e. slope and intercept) are the Patlak coefficients. The slope of the linear rise is the product of two terms, namely K1 the influx rate, and k3/(k2+k3) is the fraction of the intracellular FDG irreversibly metabolized. A non-linear weighted least-squares fitting was used to estimate the parameters of the model. The fitting weights were adjusted to decrease the contribution of later time points, which have higher noise due to radioactive decay.
A mathematical model was also derived to represent FDG efflux from a cell. The model assumed that (1) following withdrawal of FDG, the concentration of FDG in the cell culture medium remained negligible due to the large extracellular volume (0.2 ml), and (2) k3>>k4. Under these assumptions, FDG concentration within a single cell can be described by the sum of a slow and a fast exponential decay.
Efflux of FDG from cells was modeled using a two-tissue compartmental model:
where a1 and a2 are positive coefficients that depend on the initial conditions, and λ1 and λ2 are the eigenvalues of the differential system of equations describing transport of FDG between compartments. The rate constant k4 which models the possible dephosphorylation of FDG-6-phosphate (FDG-6-P) was included in this model but assumed to be much smaller than k3. Furthermore, due to the large extracellular volume (0.2 ml), the concentration of FDG in the cell culture medium was assumed to remain negligible after withdrawal of FDG. Under these assumptions, the eigenvalues can be approximated as
These rate parameters were estimated by fitting the efflux model to the measured time-activity curves. For cells for which the solution of the fit yielded λ1≈λ2 or λ2<1 min^−1, the efflux curve was fitted with a single exponential function. In the special case of irreversible trapping (k4=0), the model is described by a single exponential decay with rate: λ1=k2+k3. The model was in agreement with radioluminescence measurements of single cells, confirming that two processes are occurring concurrently at different rates. Unbound FDG contained within the cell quickly diffuses out following concentration gradients, whereas FDG-6-phosphate (FDG-6-P) requires slow dephosphorylation to cross the cell membrane.

Test [3] concerns HeLa cells. Kind of test: Radioluminescence microscopy of FDG uptake in HeLa cells on scintillator plate. The format is cell-based. Particulars: HeLa cells fasted 2 h, 400 μCi FDG 20 min 37° C., 20 minute exposure. The method, then: To visualize the uptake of radiotracer at the microscopic level, cells were cultured directly on a scintillating plate made of a material that converts incident beta radiation into optical photons via radioluminescence. In these experiments, scintillation plates were used with dimensions 10 mm×10 mm×0.5 mm that were made of CdWO4, a dense, high-Z, non-hygroscopic material, with both sides polished to allow for concurrent optical imaging (MTI Corp.). In one experiment, HeLa cells were seeded and cultured on the scintillating plate, immersed in cell culture medium (Dulbecco's Modified Eagle Medium containing 10% fetal calf serum) for 12-18 hours. After the cells had adhered to the surface of the scintillator plate and divided adequately, they were fasted for two hours in glucose-free cell medium and incubated for 20 minutes at 37° C. with 400 μCi of ^18F-fluorodeoxyglucose (FDG). […]
Radioluminescence images were taken with an EM gain of 251/1200, the excitation shutter closed, and the emission shutter open. […] Then, in luminescence mode, the image sharpness was optimized by varying the focal distance while acquiring 5 minute-exposure images. […]

The subject of test [4] is HSV1-TK (Human herpesvirus 1). Particulars: background statement; cited from earlier work.
Test [5] concerns HeLa cells transduced with HSV1-ttk. As to the kind of experiment: FHBG accumulation in HeLa cells transduced with mrfp1/HSV1-ttk reporter, radioluminescence and fluorescence microscopy. The test is classed as cell-based, human. The conditions noted are these: 300 μCi 18F-FHBG 2 hours. The text has this: To further exploit the microscope's ability to visualize both fluorescent and radioactive probe distributions, human cervical cancer cells (HeLa) were transduced with a dual fusion reporter vector, comprising reporter genes encoding the monomeric red fluorescent protein (mrfp1) and the mutant herpes simplex virus type 1 truncated thymidine kinase (HSV1-ttk). HSV1-ttk can selectively metabolize and trap radiolabeled substrates such as FHBG. Substrates such as 9-(4-[^18F]Fluoro-3hydroxymethylbutyl) guanine (^18F-FHBG) have low affinity for mammalian thymidine kinase (TK) enzymes but high affinity for HSV1-TK. FHBG is selectively metabolized and trapped within transduced cells so it can be used to image cell trafficking in living subjects with PET.
PCR amplification and standard cloning techniques were used to insert the mrfp and ttk genes from plasmid pCONA3.1-CMV-hrl-mrfp-ttk. Lentiviral EF1-gfp vectors were obtained and the gfp fragment was removed from the vector and replaced by mrfp-ttk. For PCR amplifications, different 5′ and 3′ end primers were used to generate the fusion vector (EF1-mrfp-ttk).
HeLa human cervical cancer and 293T human embryonic kidney cells were acquired and cultured in high-glucose Dulbecco's modified eagle medium supplemented with 10% fetal bovine serum. 293T cells were used to produce the lentivirus following standard procedures. HeLa cells were transduced with concentrated lentivirus for 48 hours and then trypsinized and seeded directly onto a scintillator plate coated with fibronectin (10 μg/ml), one day before imaging.
For imaging of cell transduction with FHBG and RFP, transduced HeLa cells were incubated for 2 hours with 300 μCi of ^18F-FHBG.
In transduced cells, accumulation of FHBG was coincident with expression of mrfp1 measured by fluorescence microscopy. A brightfield image (FIG. 5A), a radioluminescence image (FIG. 5B) and a fluorescence image (FIG. 5C) were obtained from the same field. It was seen that 88% of the cells visible on the brightfield image (217/245) were clearly distinguishable both on radioluminescence (FIG. 5B) and fluorescence images (FIG. 5C), while only 9% (21/245) could not be seen on either image. The remaining 7 cells were excluded from the analysis due to ambiguous radioluminescence intensity caused by the proximity to a strongly positive cell.

Test [6] concerns wild-type HeLa cells. As to the kind of experiment: FHBG uptake in wild-type HeLa cells, radioluminescence microscopy. The format is cell-based, human. Particulars: FHBG 300 μCi, 2 h. The text has this:
Generally, radioluminescence signals for FHBG-positive and FHBG-negative cells were more distinctly separated than fluorescence signals for RFP-positive and RFP-negative cells.

In test [7] the test system is mammalian thymidine kinase (TK) enzymes. The conditions noted are these: background statement; cited from earlier work.

Sequence of HSV1-TK (Human herpesvirus 1) (P0DTH5 whole entry, the tested form may be a part): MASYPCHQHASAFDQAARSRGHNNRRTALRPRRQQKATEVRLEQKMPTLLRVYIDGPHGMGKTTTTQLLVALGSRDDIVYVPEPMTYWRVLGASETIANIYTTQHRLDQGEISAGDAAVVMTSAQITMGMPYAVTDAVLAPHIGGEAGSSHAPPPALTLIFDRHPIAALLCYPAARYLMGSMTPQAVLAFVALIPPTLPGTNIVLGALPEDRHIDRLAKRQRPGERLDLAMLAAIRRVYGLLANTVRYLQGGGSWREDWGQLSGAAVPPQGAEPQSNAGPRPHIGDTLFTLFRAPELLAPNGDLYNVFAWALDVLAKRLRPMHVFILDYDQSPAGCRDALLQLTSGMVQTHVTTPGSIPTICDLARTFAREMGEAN

On to `OC[C@H]1OC(O)[C@H]([18F])[C@@H](O)[C@@H]1O` (stereo partly drawn) [FDG, ^18F-fluorodeoxyglucose], for which the “cell-to-cell variation of radioluminescence intensity (FDG uptake)” value in test [1] (FDG 400 μCi 1 hour 37° C.) is listed as “varied significantly from cell to cell”. For the same molecule, the “correlation (r) of FDG uptake with uptake of 2-NBDG in single cells” value in test [1] (FDG 400 μCi + 2-NBDG 100 μM 1 hour 37° C., P<10^−5) is reported as 0.74. Moreover, the “cell radioactivity after withdrawal of FDG from the media” value in test [2] (cells previously incubated with FDG 400 μCi, 1 hour) is reported as “fast decrease in cell radioactivity”. Further, in test [2] (glucose 25 mM added at 2 hours), the “cell radioactivity after addition of glucose to the medium” value is listed as “decline in cell radioactivity”. Also, in test [2] (glucose-deprived 1 hour, 5 μCi FDG in medium), the “time at which the majority of cells stopped accumulating FDG” value is recorded as “approximately 3 hours”. For the same molecule, the “time course of cell radioactivity (FDG uptake)” value in test [2] (glucose-deprived 1 hour, 5 μCi FDG, images every 6 minutes for 8 hours) was “linear increase in radioactivity, followed by a plateau and a slow decrease after 3 hours”. Moreover, the “variation of Patlak coefficients across cells” value in test [2] (two-tissue compartmental kinetic model of FDG influx) was “Large variations”. Also, the “colocalization between cell outline (brightfield) and radioluminescence intensity” value in test [3] is on record as “good colocalization”.
For the molecule `Nc1nc2c(ncn2CCC(CO)C[18F])c(=O)[nH]1` (stereo not drawn) [FHBG, 9-(4-[^18F]-fluoro-3-hydroxy-methylbutyl) guanine], in test [4], the “affinity for HSV1-TK” value is reported as “high affinity”. For the same molecule, the “radiotracer uptake pattern in transduced cells” value in test [5] (100× magnification) is “focal radiotracer uptake”. In test [5] (21/245 cells), the “cells that could not be seen on either radioluminescence or fluorescence image” value is 9%. Further, in test [5] (217/245 cells), the “cells visible on brightfield clearly distinguishable both on radioluminescence and fluorescence images” value was 88%. The “correlation (r) of RFP fluorescence intensity with FHBG radioluminescence intensity” value in test [5] (transduced HeLa cells) was 0.34. Besides, the “radioluminescence signal in wild-type HeLa cells” value in test [6] is reported as “no measurable radioluminescence signal”. Further, the “affinity for mammalian thymidine kinase (TK) enzymes” value in test [7] was “low affinity”.

Values taken from US20140242600A1, “IMAGING THE HETEROGENEOUS UPTAKE OF RADIOLABELED MOLECULES IN SINGLE LIVING CELLS” (priority 2011, published 2014).
